Results reported in patent US4477443A, “Tylosin derivatives, their preparation and pharmaceutical compositions containing them” (Zaidan Hojin Biselbutsu Kagaku Kenkyu Kai (Microbial …, priority 1981, dated 1984).
In brackets after ≈: the same amount, converted by molar mass. Where two headings read alike, the source gives them in different places.

Assays:
Experiment in all cases: antimicrobial activity (MIC), Table I
Assay type in all cases: cell-based
Staph. aureus 193 = conditions: Staphylococcus aureus; Staph. aureus 193; read-out: MIC
Staph. aureus 209 P = conditions: Staphylococcus aureus; Staph. aureus 209 P; read-out: MIC
Staph. aureus MS 9861 = conditions: Staphylococcus aureus, MS9861; Staph. aureus MS 9861; read-out: MIC
Sarcina lutea PCI 1001 = conditions: Micrococcus luteus, PCI1001; Sarcina lutea PCI 1001; read-out: MIC
B. subtilis NRRL B-558 = conditions: Bacillus subtilis, NRRLB558; B. subtilis NRRL B-558; read-out: MIC
Coryn. bovis 1810 = conditions: Corynebacterium bovis; Coryn. bovis 1810; read-out: MIC
E. coli NIHJ = conditions: Escherichia coli; E. coli NIHJ; read-out: MIC
E. coli K-12 = conditions: Escherichia coli, K12; E. coli K-12; read-out: MIC
E. coli K-12 R-5 = conditions: Escherichia coli, K12R5; E. coli K-12 R-5; read-out: MIC
Kleb. pneumoniae PCI 602 = conditions: Klebsiella pneumoniae, PCI602; Kleb. pneumoniae PCI 602; read-out: MIC
[1] = tested on: Shigella dysenteriae JS 11910; conditions: JS11910
Sal. enteritidis 1891 = conditions: Salmonella enterica; Sal. enteritidis 1891; read-out: MIC
E. coli K-12 ML 1410 = conditions: Escherichia coli, K12ML1410
Pro. vulgaris OX-19 = conditions: Proteus vulgaris, OX19; Pro. vulgaris OX-19; read-out: MIC

Structure (SMILES) | MIC (Staph. aureus 193) [µg/mL] | MIC (Staph. aureus 209 P) [µg/mL] | MIC (Staph. aureus MS 9861) [µg/mL] | MIC (Sarcina lutea PCI 1001) [µg/mL] | MIC (B. subtilis NRRL B-558) [µg/mL] | MIC (Coryn. bovis 1810) [µg/mL] | MIC (E. coli NIHJ) [µg/mL] | MIC (E. coli K-12) [µg/mL] | MIC (E. coli K-12 R-5) [µg/mL] | MIC (Kleb. pneumoniae PCI 602) [µg/mL] | MIC [1] [µg/mL] | MIC (Sal. enteritidis 1891) [µg/mL] | MIC (E. coli K-12 ML 1410) [µg/mL] | MIC (Pro. vulgaris OX-19) [µg/mL] | MIC (E. coli K-12 ML 1410; E. coli K-12 ML 1410, read-out: MIC) [µg/mL]
CCC1OC(=O)CC(O)C(C)C(OC2OC(C)C(O)C(N(C)C)C2O)C(CC=O)CC(C)C(=O)C=CC(C)=CC1CN(C)C1CCCCC1 (stereo not shown) [Example 27, 23-deoxy-23-(N-methylcyclohexylamino)mycaminosyl tylonolide] | 0.78 (≈ 1.13 µM) | < 0.2 | 3.12 (≈ 4.5 µM) | < 0.2 | < 0.2 | < 0.2 | 0.78 (≈ 1.13 µM) | 3.12 (≈ 4.5 µM) | 3.12 (≈ 4.5 µM) | < 0.2 | < 0.2 | < 0.2 | – | – | –
CCC1OC(=O)CC(O)C(C)C(OC2OC(C)CC(N(C)C)C2O)C(CC=O)CC(C)C(=O)C=CC(C)=CC1CN1CCC(=O)CC1 (stereo not shown) [Example 28, 23,4'-dideoxy-23-(4-pipridone)mycaminosyl tylonolide] | < 0.2 | < 0.2 | 0.39 (≈ 0.588 µM) | < 0.2 | < 0.2 | 0.39 (≈ 0.588 µM) | 3.12 (≈ 4.71 µM) | 6.25 (≈ 9.43 µM) | 6.25 (≈ 9.43 µM) | 1.56 (≈ 2.35 µM) | 0.78 (≈ 1.18 µM) | 6.25 (≈ 9.43 µM) | – | – | –
CCOC(=O)NCC1C=C(C)C=CC(=O)C(C)CC(CC=O)C(OC2OC(C)CC(N(C)C)C2O)C(C)C(O)CC(=O)OC1CC (stereo not shown) [Example 78, 23,4'-Dideoxy-23-ethoxycarbonylaminomycaminosyl tylonolide] | < 0.2 | < 0.2 | 0.39 (≈ 0.597 µM) | < 0.2 | 0.39 (≈ 0.597 µM) | < 0.2 | 3.12 (≈ 4.78 µM) | 12.5 (≈ 19.1 µM) | 6.25 (≈ 9.57 µM) | 3.12 (≈ 4.78 µM) | 1.56 (≈ 2.39 µM) | 3.12 (≈ 4.78 µM) | – | – | –
CCC1OC(=O)CC(O)C(C)C(OC2OC(C)CC(N(C)C)C2O)C(CC=O)CC(C)C(=O)C=CC(C)=CC1CNC(=O)c1ccccc1 (stereo not shown) [Example 76, 23-Benzoylamino-23,4'-dideoxymycaminosyl tylonolide] | 0.39 (≈ 0.569 µM) | 0.39 (≈ 0.569 µM) | 0.78 (≈ 1.14 µM) | < 0.2 | 0.78 (≈ 1.14 µM) | < 0.2 | 3.12 (≈ 4.56 µM) | 6.25 (≈ 9.13 µM) | 6.25 (≈ 9.13 µM) | 3.12 (≈ 4.56 µM) | 1.56 (≈ 2.28 µM) | 3.12 (≈ 4.56 µM) | – | – | –
CCC1OC(=O)CC(O)C(C)C(OC2OC(C)CC(N(C)C)C2O)C(CC=O)CC(C)C(=O)C=CC(C)=CC1CN1CCCCC1CO (stereo not shown) [Example 31, 23,4'-dideoxy-23-[2-(hydroxymethyl)piperidino]mycaminosyl tylonolide] | 0.39 (≈ 0.574 µM) | < 0.2 | 0.39 (≈ 0.574 µM) | < 0.2 | 0.39 (≈ 0.574 µM) | 0.39 (≈ 0.574 µM) | 0.39 (≈ 0.574 µM) | 0.78 (≈ 1.15 µM) | 0.78 (≈ 1.15 µM) | 0.78 (≈ 1.15 µM) | 0.78 (≈ 1.15 µM) | 0.39 (≈ 0.574 µM) | – | – | –
CCC1OC(=O)CC(O)C(C)C(OC2OC(C)CC(N(C)C)C2O)C(CC=O)CC(C)C(=O)C=CC(C)=CC1CN1CCCC1 (stereo not shown) [Example 16, 23,4'-dideoxy-23-pyrrolidinomycaminosyl tylonolide] | 1.56 (≈ 2.46 µM) | 0.39 (≈ 0.614 µM) | 3.12 (≈ 4.91 µM) | < 0.2 | 0.78 (≈ 1.23 µM) | 0.39 (≈ 0.614 µM) | 1.56 (≈ 2.46 µM) | 3.12 (≈ 4.91 µM) | 1.56 (≈ 2.46 µM) | 0.78 (≈ 1.23 µM) | < 0.2 | 0.39 (≈ 0.614 µM) | 3.12 (≈ 4.91 µM) | 1.56 (≈ 2.46 µM) | –
CCC1OC(=O)CC(O)C(C)C(OC2OC(C)CC(N(C)C)C2O)C(CC=O)CC(C)C(=O)C=CC(C)=CC1CN1CCCCC1 (stereo not shown) [Example 17, 23,4'-dideoxy-23-piperidinomycaminosyl tylonolide] | 0.78 (≈ 1.2 µM) | 0.39 (≈ 0.601 µM) | 1.56 (≈ 2.4 µM) | < 0.2 | 0.39 (≈ 0.601 µM) | < 0.2 | 0.78 (≈ 1.2 µM) | 3.12 (≈ 4.81 µM) | 1.56 (≈ 2.4 µM) | 1.56 (≈ 2.4 µM) | < 0.2 | 0.39 (≈ 0.601 µM) | – | 0.78 (≈ 1.2 µM) | 0.78 (≈ 1.2 µM)
CCC1OC(=O)CC(O)C(C)C(OC2OC(C)C(O)C(N(C)C)C2O)C(CC=O)CC(C)C(=O)C=CC(C)=CC1CN(C)CCc1ccccc1 (stereo not shown) [Example 26, 23-deoxy-23-(N-methylphenethylamino)mycaminosyl tylonolide] | 0.2 (≈ 0.28 µM) | < 0.2 | 12.5 (≈ 17.5 µM) | < 0.2 | 50 (≈ 69.9 µM) | < 0.2 | 3.12 (≈ 4.36 µM) | 12.5 (≈ 17.5 µM) | 12.5 (≈ 17.5 µM) | 0.78 (≈ 1.09 µM) | 3.12 (≈ 4.36 µM) | 3.12 (≈ 4.36 µM) | – | – | –
